In general, inhibition refers to the share of the control response that was lost under treatment.

This is an account of results in patent US8883793B2, “Tubulin inhibitors and methods of using the same” (Development Center for Biotechnology, priority 2010, dated 2014).

In the first assay the test system is biotinylated tubulin. The assay can be described thus: Colchicine competitive-binding assay. Conditions: at 10 μM concentration; 3H-colchicine; left column pair of Table 7. As for the experimental part: The colchicine competitive-binding assay was done by using the Colchicine Site competitive Assay Kit (Cytoskeleton, Inc.), streptavidin-coated yttrium SPA beads(GE Healthcare, Inc.), and ^3H-colchicine(PerkinElmer, Inc.). Briefly, the binding mixture includes 1 μL^3H-labeled ligand (specific activity […]), and 1 μg biotinylated tubulin and 88 μg SPA beads in 200 μL assay buffer. The test compound and ^3H-labeled ligand were added before tubulin. After incubation at 37° C. for 2 hours, the SPA beads were allowed to settle down for 24 hours at room temperature, and scintillation counting was done on the TopCount Microplate Scintillation Counter.
Turning to `Cc1ccc(CCC(=O)Nc2ncc(Cc3ccccc3)s2)o1` [Compound 1, N-(5-Benzyl-thiazol-2-yl)-3-(5-methyl-furan-2-yl)-propionamide], the “binding rate (%) (colchicine competitive-binding)” value (shortened to “binding rate (%)”) came to 50.2%.

For `O=C(CCc1cccnc1)Nc1ncc(Cc2ccc(F)cc2)s1` [Compound 4, N-[5-(4-Fluoro-benzyl)-thiazol-2-yl]-3-pyridin-3-yl-propionamide], the “binding rate (%)” value was determined as 58.6%.

Regarding `COc1ccc(Cc2cnc(NC(=O)CCc3ccc(C)o3)s2)cc1` [Compound 5, N-[5-(4-Methoxy-benzyl)-thiazol-2-yl]-3-(5-methyl-furan-2-yl)-propionamide], the “binding rate (%)” value is recorded as 63.8%.

On to `O=C(CCc1ccccc1)Nc1ncc(Cc2ccc3c(c2)OCO3)s1` [Compound 6, N-(5-Benzo[1,3]dioxol-5-ylmethyl-thiazol-2-yl)-3-phenyl-propionamide], for which the “binding rate (%)” value stood at 63.6%.

As to `COc1ccc(Cc2cnc(NC(=O)CCc3ccc(F)cc3)s2)cc1` [Compound 11, 3-(4-Fluoro-phenyl)-N-[5-(4-methoxy-benzyl)-thiazol-2-yl]-propionamide], the “binding rate (%)” value amounted to 62.4%.

For the next assay, the system named is KB cell. The experiment in a line: MTS assay, growth inhibition of KB cells. The assay is classed as cell-based. Conditions: Homo sapiens, at 10 μM concentration, incubated for 72 h, read-out: Inhibition rate (%) (growth inhibition rate of MTS assay). As for the experimental part:
MTS assay was performed in determining the growth inhibition of cancer cells. MTS ((3-(4,5-dimethylthiazol-2-yl)-5-(3-carboxymethoxyphenyl)-2-(4-sulfophenyl)-2H-tetrazolium)), in the presence of phenazine methosulfate (PMS) and reductases, produces a formazan product that has an absorbance maximum at 490-500 nm. MTS assays (and closely related MTT assay) are commonly used to measure cell viabilities or survivals.
Briefly, KB/Hela, NCI-H460, A375, Colo205, HCT-116, U937, MCF-7, MDA-MB-231, A549, H1975 cells were seeded into 96-well plate at 4000, 4000, 2000, 2000, 2000 cells/well. After 24 h for attachment, test compound was added into each well and incubated for 72 h. A total of 20 μl of MTS reaction reagent containing the MTS (Promega, Madison, Wis.) and PMS in a ratio of 20:1 was added into each well to react with dehydrogenase enzyme in survival cells. After 3 h, the absorbance at 490 nm was monitored using Emax precision microplate reader (Molecular Devices, Sunnyvale, Calif.).
The growth inhibition rate of MTS assay at KB cell of these compounds (at 10 μM concentration) are list in Table 5.
Take `Cc1ccc(CCC(=O)Nc2ncc(Cc3ccccc3)s2)o1` [Compound 1, N-(5-Benzyl-thiazol-2-yl)-3-(5-methyl-furan-2-yl)-propionamide]: the inhibition at 10 µM came to 95.4%.

Turning to `O=C(CCc1cccnc1)Nc1ncc(Cc2ccc(F)cc2)s1` [Compound 4, N-[5-(4-Fluoro-benzyl)-thiazol-2-yl]-3-pyridin-3-yl-propionamide], the inhibition at 10 µM was 93.9%.

On to `COc1ccc(Cc2cnc(NC(=O)CCc3ccc(C)o3)s2)cc1` [Compound 5, N-[5-(4-Methoxy-benzyl)-thiazol-2-yl]-3-(5-methyl-furan-2-yl)-propionamide], for which the inhibition at 10 µM is 95.8%.

Turning to `O=C(CCc1ccccc1)Nc1ncc(Cc2ccc3c(c2)OCO3)s1` [Compound 6, N-(5-Benzo[1,3]dioxol-5-ylmethyl-thiazol-2-yl)-3-phenyl-propionamide], the inhibition at 10 µM is 95.1%.

Take `COc1ccc(Cc2cnc(NC(=O)CCc3ccc(F)cc3)s2)cc1` [Compound 11, 3-(4-Fluoro-phenyl)-N-[5-(4-methoxy-benzyl)-thiazol-2-yl]-propionamide]: the inhibition at 10 µM was 95.1%.

Consider `COc1ccc(Cc2cnc(NC(=O)CCc3ccc(-c4ccccc4)cc3)s2)cc1` [Compound 51, 3-Biphenyl-4-yl-N-[5-(4-methoxy-benzyl)-thiazol-2-yl]-propionamide], for which the inhibition at 10 µM stood at 96.1%.

`COc1ccc(Cc2cnc(NC(=O)C(C)Cc3ccc(F)cc3)s2)cc1` (stereo not shown) [Compound 57, 3-(4-Fluoro-phenyl)-N-[5-(4-methoxy-benzyl)-thiazol-2-yl]-2-methyl-propionamide]: the inhibition at 10 µM turned out to be 93.2%.

With `O=C(CCc1ccc(F)cc1)Nc1ncc(Sc2ccccc2)s1` [Compound 65, 3-(4-Fluoro-phenyl)-N-(5-phenylsulfanyl-thiazol-2-yl)-propionamide], the inhibition at 10 µM amounted to 96.3%.

`O=C(CCc1cccnc1)Nc1ncc(Sc2ccccc2)s1` [Compound 66, N-(5-Phenylsulfanyl-thiazol-2-yl)-3-pyridin-3-yl-propionamide]: the inhibition at 10 µM turned out to be 93.3%.

Take `O=C(CCc1ccccc1)Nc1ncc(Sc2ccccc2)s1` [Compound 67, 3-Phenyl-N-(5-phenylsulfanyl-thiazol-2-yl)-propionamide]: the inhibition at 10 µM turned out to be 96.6%.

For the molecule `COc1cccc(CCC(=O)Nc2ncc(Sc3ccccc3)s2)c1` [Compound 68, 3-(3-Methoxy-phenyl)-N-(5-phenylsulfanyl-thiazol-2-yl)-propionamide], the inhibition at 10 µM came to 94.4%.

As to `Cc1ccc(CCC(=O)Nc2ncc(Sc3ccccc3)s2)o1` [Compound 72, 3-(5-Methyl-furan-2-yl)-N-(5-phenylsulfanyl-thiazol-2-yl)-propionamide], the inhibition at 10 µM amounted to 60%.

Regarding `O=C(CCc1ccc(-c2ccccc2)cc1)Nc1ncc(Sc2ccccc2)s1` [Compound 73, 3-Biphenyl-4-yl-N-(5-phenylsulfanyl-thiazol-2-yl)-propionamide], the inhibition at 10 µM stood at 97%.

Consider `COc1ccc(Oc2cnc(NC(=O)CCc3ccc(C)o3)s2)cc1` [Compound 74, N-[5-(4-Methoxy-phenoxy)-thiazol-2-yl]-3-(5-methyl-furan-2-yl)-propionamide], for which the inhibition at 10 µM is 96.9%.

Take `O=C(CCc1ccccc1)Nc1ncc(SCc2ccccc2)s1` [Compound 75, N-(5-Benzylsulfanyl-thiazol-2-yl)-3-phenyl-propionamide]: the inhibition at 10 µM was found to be 82.5%.

Turning to `COc1cccc(N2CCN(c3cnc(NC(=O)CCc4ccccc4)s3)CC2)c1` [Compound 76, N-{5-[4-(3-Methoxy-phenyl)-piperazin-1-yl]-thiazol-2-yl}-3-phenyl-propionamide], the inhibition at 10 µM was 95%.

Regarding `Cc1ccc(CCC(=O)Nc2ccc(-n3ccc4ccccc43)cn2)o1` [Compound 78, N-(5-Indol-1-yl-pyridin-2-yl)-3-(5-methyl-furan-2-yl)-propionamide], the inhibition at 10 µM turned out to be 93.9%.

In the case of `Cc1ccc(CCC(=O)Nc2ccc(Sc3ccccc3)cn2)o1` [Compound 80, 3-(5-Methyl-furan-2-yl)-N-(5-phenylsulfanyl-pyridin-2-yl)-propionamide], the inhibition at 10 µM was 79.4%.

As for `O=C(CCc1cccnc1)Nc1ccc(Sc2ccccc2)cn1` [Compound 82, N-(5-Phenylsulfanyl-pyridin-2-yl)-3-pyridin-3-yl-propionamide], the inhibition at 10 µM is 95.6%.

In the case of `O=C(CCc1ccccc1)Nc1ccc(SCc2ccccc2)cn1` [Compound 86, N-(5-Benzylsulfanyl-pyridin-2-yl)-3-phenyl-propionamide], the inhibition at 10 µM is 92.8%.

In the case of `COc1ccc(Cc2nnc(NC(=O)CCc3ccc(C)o3)s2)cc1` [Compound 88, N-[5-(4-Methoxy-benzyl)-[1,3,4]thiadiazol-2-yl]-3-(5-methyl-furan-2-yl)-propionamide], the inhibition at 10 µM was determined as 93.5%.

`COc1ccc(Cc2nnc(NC(=O)CCc3ccccc3)s2)cc1` [Compound 89, N-[5-(4-Methoxy-benzyl)-[1,3,4]thiadiazol-2-yl]-3-phenyl-propionamide]: the inhibition at 10 µM was 96.9%.

Regarding `Cn1c(-c2ccccc2)cnc1NC(=O)CCc1ccccc1` [Compound 90, N-(1-Methyl-5-phenyl-1H-imidazol-2-yl)-3-phenyl-propionamide], the inhibition at 10 µM is 96.6%.

Turning to `Cc1ccc(CCC(=O)Nc2ncc(-c3ccccc3)n2C)o1` [Compound 91, 3-(5-Methyl-furan-2-yl)-N-(1-methyl-5-phenyl-1H-imidazol-2-yl)-propionamide], the inhibition at 10 µM worked out at 96%.

For `Cc1ccc(CCC(=O)Nc2ncc(/C=C/c3ccccc3)cn2)o1` [Compound 95, 3-(5-Methyl-furan-2-yl)-N-(5-styryl-pyrimidin-2-yl)-propionamide], the inhibition at 10 µM is 93.6%.

Regarding `O=C(/C=C/c1ccccc1)Nc1ncc(/C=C/c2ccccc2)cn1` [Compound 96, 3-Phenyl-N-(5-styryl-pyrimidin-2-yl)-acrylamide], the inhibition at 10 µM came out at 96.8%.

Regarding `O=C(CCc1ccccc1)Nc1ncc(/C=C/c2ccccc2)cn1` [Compound 97, 3-Phenyl-N-(5-styryl-pyrimidin-2-yl)-propionamide], the inhibition at 10 µM worked out at 52.7%.

Consider `COc1ccc(-c2cnc(NC(=O)CCc3ccc(C)o3)nc2)c(OC)c1` [Compound 107, N-[5-(2,4-Dimethoxy-phenyl)-pyrimidin-2-yl]-3-(5-methyl-furan-2-yl)-propionamide], for which the inhibition at 10 µM stood at 97%.

`O=C(Nc1ncc(-c2ccccc2)cn1)OCc1ccccc1` [Compound 108, (5-Phenyl-pyrimidin-2-yl)-carbamic acid benzyl ester]: the inhibition at 10 µM is 96.9%.

Take `O=C(Nc1ncc(-c2ccc(F)cc2)cn1)OCc1ccccc1` [Compound 109, [5-(4-Fluoro-phenyl)-pyrimidin-2-yl]-carbamic acid benzyl ester]: the inhibition at 10 µM is 95.9%.

For `O=C(CCc1ccccc1)Nc1ccc(-c2ccccc2)cn1` [Compound 110, 3-Phenyl-N-(5-phenyl-pyridin-2-yl)-propionamide], the inhibition at 10 µM worked out at 97%.

Consider `O=C(CCc1ccccc1)Nc1ccc(-c2ccc(F)cc2)cn1` [Compound 113, N-[5-(4-Fluoro-phenyl)-pyridin-2-yl]-3-phenyl-propionamide], for which the inhibition at 10 µM was found to be 97.1%.

With `Cc1ccc(CCC(=O)Nc2ccc(-c3ccccc3)cn2)s1` [Compound 114, 3-(5-Methyl-thiophen-2-yl)-N-(5-phenyl-pyridin-2-yl)-propionamide], the inhibition at 10 µM worked out at 93.4%.

Take `COc1cccc(-c2ccc(NC(=O)CCc3ccc(C)o3)nc2)c1OC` [Compound 115, N-[5-(2,3-Dimethoxy-phenyl)-pyridin-2-yl]-3-(5-methyl-furan-2-yl)-propionamide]: the inhibition at 10 µM was 95.8%.

Turning to `COc1cccc(-c2ccc(NC(=O)CCc3ccccc3)nc2)c1OC` [Compound 116, N-[5-(2,3-Dimethoxy-phenyl)-pyridin-2-yl]-3-phenyl-propionamide], the inhibition at 10 µM worked out at 94.1%.

As to `Cc1cc(-c2ccccc2)cnc1NC(=O)CCc1ccccc1` [Compound 117, N-(3-Methyl-5-phenyl-pyridin-2-yl)-3-phenyl-propionamide], the inhibition at 10 µM amounted to 94.6%.

As to `Cc1cc(-c2ccc(N(C)C)cc2)cnc1NC(=O)C(C)Cc1ccccc1` (stereo not shown) [Compound 121, N-[5-(4-Dimethylamino-phenyl)-3-methyl-pyridin-2-yl]-2-methyl-3-phenyl-propionamide], the inhibition at 10 µM was 93.5%.

Take `Cc1ccc(CCC(=O)Nc2cnc(-c3ccccc3)cn2)o1` [Compound 122, 3-(5-Methyl-furan-2-yl)-N-(5-phenyl-pyrazin-2-yl)-propionamide]: the inhibition at 10 µM came to 80.8%.
